Laboratory results as given in patent publication US12599610B2, “Solid dosage formulations of an orexin receptor antagonist” (Merck Sharp & Dohme LLC, priority 2012, dated 2026).
Like-named read-outs stand apart in the source and are kept apart here.

Assay: clinical food-effect pharmacokinetic study in healthy human men, fasted vs high-fat breakfast
Conditions: male, in vivo, po, 40 mg; for Tmax / Cmax / half-life: single oral 40 mg; for AUC(0-inf): single oral 40 mg dose of hot melt extrusion composition; for half-life: read-out: Apparent Terminal t1/2 (converted)
Method: The pharmacokinetic profile of this composition of suvorexant was also tested by administering a single dose of the formulation to healthy human men. […] In the second period of this clinical study, the 7 subjects in each treatment groups were crossed over and received the other treatment.
The fed/fasted GMR and 90% confidence intervals for AUC0-inf were 0.98 (0.90, 1.07).

Cc1ccc(-n2nccn2)c(C(=O)N2CCN(c3nc4cc(Cl)ccc4o3)CC[C@H]2C)c1 [Suvorexant, 5-chloro-2-{(5R)-5-methyl-4-[5-methyl-2-(2H-1,2,3-triazol-2-yl)benzoyl]-1,4-diazepan-1-yl}-1,3-benzoxazole]
Tmax (Tmax (Suvorexant Fed/Suvorexant Fasted), fed/fasted): 1.5 h
AUC(0-inf) (Fasted (8-hour fast)): 13.2 µM·h
AUC(0-inf) (Fed (standard high-fat breakfast)): 13 µM·h
Cmax (Fasted): 1000 nM
half-life (Fasted): 10.9 h
Tmax (Fasted, read-out: Tmax): 2 h
Cmax (Fed (high-fat breakfast)): 1100 nM
half-life (Fed (high-fat breakfast)): 11.8 h
Tmax (Fed (high-fat breakfast), read-out: Tmax): 3 h
